How the values were obtained:
[1] = in vivo; cited from earlier work
TRPV1 = experiment: Whole cell patch clamp electrophysiology of TRPV1 conductance; assay type: cell-based
Source text: FIG. 25C provides data on the functional effects of terpenes at the nociceptive ion channel TRPV1.

SMILES	side effects [1]	TRPV1 conductance (TRPV1)
CN1C[C@H](C(=O)N[C@]2(C)O[C@@]3(O)[C@@H]4CCCN4C(=O)[C@H](Cc4ccccc4)N3C2=O)C=C2c3cccc4[nH]cc(c34)C[C@H]21 [ergotamine]	nausea, vomiting and cardiovascular side effects	
C=CC(=C)CCC=C(C)C [myrcene]		activate TRPV1 conductance
